The test system of data set [1] is C26 tumour-bearing mice. Nature of the data set: Survival experiment in C26 tumour-bearing mice on ketone-ester diet. The data set is classed as in vivo, Male Balb/c mice. The note with it: ketone groups (KETrest+KETex) vs control groups, 4.5% ketone ester diet, p<0.01. How it is done: Animal housing and husbandry—Male Balb/c mice were obtained at 11 weeks of age and housed in polycarbonate cages on a 6:00 am to 6:00 pm light cycle under controlled room temperature (21-23° C.) and humidity (40-60%). Mice were individually housed to allow assessment of individual energy intake and physical activity parameters. Cages contained spruce particles (Lignocel® BK 8/15) bedding, and were changed every three weeks. Enrichment was provided by two cotton pellets, which were replaced during cage changing. Mice received one wooden stick to allow correct wearing off of their teeth while on the liquid diets. Solid food was provided in a recess of the metal wire lid at the top of the cage, whilst liquid diets were provided on a daily basis by means of feeding tubes (Bio-Serv™, catalog #14-726-518). Water was provided by a centralized system with a metal dispenser extending into the cage. All procedures were approved by the Animal Ethics Committee of KU Leuven, Belgium (P093/2017). […]
General study protocol and dietary interventions—Mice were individually housed and received ad libitum access to standard chow (Ssniff® R/M-H, Soest, Germany) prior to the start of the study. Food intake was registered and body weight was measured daily for 5 days to assess their normal rate of food intake. […]

A short description of data set [2]: Blood metabolite concentrations (βHB, glucose), 1-hr postprandial. In kind it is in vivo, Male Balb/c mice. The note with it: at all times. The method, then: Blood metabolite concentrations-Blood parameters were measured 1-hr postprandial, every 3 days during the food habituation period, and every 4 days from the day of tumour induction. Blood βHB and glucose levels were measured using the Glucomen Lx plus-meter (Menarini Diagnostics, Firenze, Italy) with Lx β-ketone or Lx glucose strips, respectively. The detection limits for p-hydroxybutyrate were 0.1 to 8.0 millimolar (mM). Blood lactate concentrations were assessed using the Lactate-[…] monitoring system (Arkray, Kyoto, Japan). Measurements were performed according to the manufacturer's instructions.

The next data set deals with M. soleus. The data set can be described thus: Ex-vivo muscle contractile properties of M. soleus. The note with it: on average, KETrest & KETex vs CONrest & CONex, p<0.05. The data set is classed as in vivo, Male Balb/c mice. The method, then:
Muscle contractile properties—Ex-vivo muscle contractile properties were assessed as described by Derave W et al; Skeletal muscle properties in a transgenic mouse model for amyotrophic lateral sclerosis: Effects of creatine treatment. Neurobiol Dis 13: 264-272, 2003 and Eijnde B O et al; Effect of muscle creatine content manipulation on contractile properties in mouse muscles. Muscle and Nerve 29: 428-435, 2004.
Mice were anesthetized by an intraperitoneal injection of ketamine-xylazine (10 mg/kg). After dissection of M. soleus and M. extensor digitorum longus (EDL) of both hindlimbs, muscles were mounted vertically on a force transducer (HSE, March-Hugstetten, Germany) and incubated in organ baths containing Krebs-Henseleit solution (118 mM NaCl, 25 mM NaHCO3, 5 mM KCl, 1 mM MgSO4, 1 mM KH2PO4, 2.5 mM CaCl2 and […]). […] Following recovery, resting length (L0) was determined with a micropositioner and an oscilloscope by stimulating the soleus and EDL tetanically for 350 ms at 80 Hz and 120 Hz, respectively, interspersed with 2-min rest intervals. […] Average maximal tension and specific tension (force corrected for muscle cross-sectional area) were calculated for both the twitch and tetanic stimulations. Cross-sectional area was determined by dividing the wet muscle mass by the product of resting muscle length (L0) and the density of mammalian skeletal muscle (1.06 g/cm^3).

The test system of data set [3] is murine colon carcinoma C26 cells. The data set can be described thus: Tumour weights, C26 tumour-xenografts. The settings on record: 16 days after C26 inoculation, KET mice, p<0.05 vs CON, mean±SEM. In kind it is in vivo, Male Balb/c mice. The method, then: Tumour induction and exercise intervention—On day 12, tumour-xenografts were induced by interscapular injection of 5×10^5 murine colon carcinoma C26 cells dissolved in 100 μl of phosphate-buffered saline (PBS). C26 cell line was cultured in DMEM (Thermo Fisher Scientific, 41965-062) supplemented with 10% foetal bovine serum (FBS), 1% glutamine (Sigma G7513) and 1% penicillin and streptomycin. WT mice were injected with an identical volume of PBS. Twenty four hours before tumour inoculation, WR mice (CONex and KETex) received a running wheel to induce voluntary exercise, as previously reported in Coletti D et al;. Substrains of inbred mice differ in their physical activity as a behavior. Sci World J 2013: 1-7, 2013. Each wheel was supplied with a commercial cycling computer (2Cycle, 81488) to record physical activity parameters (i.e. running time, distance, and speed). Behavioural testing and tissue collection experiment—In a second experiment, 9 mice were included in each experimental group and used for behavioural testing and tissue collection. Mice were euthanized 16 days following PBS or tumour cells inoculation. Twenty-four hours before sacrifice the running wheels were removed to eliminate potential acute effects of exercise on variables measured.

Data set [4] in a line: Blood (R)-3-hydroxybutyrate after oral administration of ester.
In data set [5] the test system is C26 tumour-bearing mice. Nature of the data set: Voluntary wheel running activity. The data set is classed as in vivo, Male Balb/c mice. The note with it: KETex, wheel running on ketone ester diet, mean±SEM. How it is done: Tumour induction and exercise intervention—On day 12, tumour-xenografts were induced by interscapular injection of 5×10^5 murine colon carcinoma C26 cells dissolved in 100 μl of phosphate-buffered saline (PBS). C26 cell line was cultured in DMEM (Thermo Fisher Scientific, 41965-062) supplemented with 10% foetal bovine serum (FBS), 1% glutamine (Sigma G7513) and 1% penicillin and streptomycin. WT mice were injected with an identical volume of PBS. Twenty four hours before tumour inoculation, WR mice (CONex and KETex) received a running wheel to induce voluntary exercise, as previously reported in Coletti D et al;. Substrains of inbred mice differ in their physical activity as a behavior. Sci World J 2013: 1-7, 2013. Each wheel was supplied with a commercial cycling computer (2Cycle, 81488) to record physical activity parameters (i.e. running time, distance, and speed). Body weight, food intake and wheel running parameters—Body weight was measured every 3 days during the food training period. After tumour induction, body weight was measured at 4-day intervals. Food intake and wheel running parameters were measured daily. Statistical analysis—Data are presented as mean±SEM. […] Mice from the WT groups were not included in the 2-way ANOVA model, but were added as a reference. Differences in wheel running activity were assessed using an unpaired t-test. […]

Data set [6] concerns C26 tumour-bearing mice. Nature of the data set: Food intake and body weight of C26 tumour-bearing mice. The data set is classed as in vivo, Male Balb/c mice. The note with it: all experimental groups. The method, then: General study protocol and dietary interventions—Mice were individually housed and received ad libitum access to standard chow (Ssniff® R/M-H, Soest, Germany) prior to the start of the study. Food intake was registered and body weight was measured daily for 5 days to assess their normal rate of food intake. Following this baseline follow-up period, the mice were matched for body weight and food intake where after they were randomly assigned to five experimental groups: i) C26 tumour-bearing mice at rest on control diet (CONrest), ii) C26-bearing mice at rest on ketone diet (KETrest), iii) C26-bearing mice performing voluntary wheel running (WR) on control diet (CONex), iv) C26-bearing mice performing WR on ketone diet (KETex), and v) healthy mice at rest on control diet (WT). Mice were habituated to their experimental diet by a step-wise change of their food supply.
During the first three days, the mice received both their experimental liquid diet (without the addition of ketones) as well as standard chow. From day 3 to 6, mice received only their experimental liquid diets (i.e. 0% KET or CON diet). […]
Body weight, food intake and wheel running parameters—Body weight was measured every 3 days during the food training period. After tumour induction, body weight was measured at 4-day intervals. Food intake and wheel running parameters were measured daily.

Data set [7] has as its system C26 tumour-bearing mice. Nature of the data set: Muscle weights (TA, QUAD, GAS). The data set is classed as in vivo, Male Balb/c mice. The source says:
Behavioural testing and tissue collection experiment—In a second experiment, 9 mice were included in each experimental group and used for behavioural testing and tissue collection. Mice were euthanized 16 days following PBS or tumour cells inoculation. Twenty-four hours before sacrifice the running wheels were removed to eliminate potential acute effects of exercise on variables measured.

For data set [8], the system named is C26 tumour-bearing mice. The data set can be described thus: Grip strength of forelimbs and hindlimbs. In kind it is in vivo, Male Balb/c mice. The note with it: day 16, KETrest & KETex vs CONrest & CONex, p<0.05. How it is done: Grip strength—Grip strength of both the forelimbs and the hindlimbs was evaluated, at baseline (day 5) and every 4 days starting at tumour induction, by means of a bar and a grid respectively, connected to an isometric force transducer (BIO-GS3 Grip Strength Test, BIOSEB, Pinellas Park, Florida). Mice were lifted by their tail and positioned to grasp the metal bar or grid, and were pulled horizontally until they could no longer hold the grip. Maximal force (g) was registered during five attempts for both the forelimbs and the hindlimbs. Performance was calculated as the average of the three best attempts. Between attempts the mice were returned to their home cage and given a rest period of 3 min.

For data set [9], the system named is pancreatic cancer cachexia. The note with it: high amounts of ketone salts; cited from earlier work.
For data set [10] the following is noted: in vivo.

Like-named read-outs stand apart in the source and are kept apart here.

Here are results for four molecules from patent US12226387B2, “Compounds for use in cancer cachexia” (priority 2018, dated 2025).

Consider `C[C@@H](O)CCOC(=O)C[C@@H](C)O` [KET, (R)-3-hydroxybutyl-(R)-3-hydroxybutyrate], for which, in the data set with C26 tumour-bearing mice [1], the “increase in mean survival time compared to control groups” value is “+40%” and the “increase in median survival time compared to control groups” value is listed as “+17%”. Besides, the “blood glucose levels compared with CON groups” value in data set [2] was “lower”. For the same molecule, in the data set on M. soleus, the “Peak twitch force of M. soleus higher than in control groups” value is approximately 45% and the “tetanic force of M. soleus higher than in control groups” value is approximately 29%. In addition, the tumour weights in data set [3] is 204 ± 32 mg. Further, the “level of uptake in the gut” value in data set [4] (consumption of a drink) is listed as “surprisingly high”. Moreover, in [4] (in vivo), the “circulating levels of (R)-3-hydroxybutyrate in the blood” value was “high” and the “period of raised (R)-3-hydroxybutyrate concentrations compared with ketone salts” value is given as “longer period”. In the data set on C26 tumour-bearing mice [5], the Av distance/day is 19.78 ± 1.36 km and the Av running speed is 2.94 ± 0.12 km/h. In the data set on C26 tumour-bearing mice [6], the “Body weight over time” value is recorded as “similarly decreased”. Also, the “Tibialis anterior (TA) weight” value in the data set with C26 tumour-bearing mice [7] (KET, p<0.05 vs CON, mean±SEM) was determined as 41.6 ± 2.1 mg. Moreover, the “gastrocnemius (GAS) weights between the groups” value in the data set on C26 tumour-bearing mice [7] (mouse, in vivo) is recorded as “similar”. In addition, in the data set with C26 tumour-bearing mice [7] (on average), the “TA weight higher in KET compared with CON” value is approximately 12%. For the same molecule, in the data set on C26 tumour-bearing mice [8], the “forelimb grip strength vs control groups” value is recorded as “higher” and the “hindlimb grip strength vs control groups” value is given as “higher”.

`CC(=O)CC(=O)[O-].[Li+]` [lithium acetoacetate]: in data set [9], the “muscle and body weight loss” value was “inhibition”; the tumour growth entry is “Reduced”.

On to `CC(O)CC(=O)[O-].[Na+]` (centres unmarked) [sodium hydroxybutyrate], for which, in data set [9], the “muscle and body weight loss” value is “inhibition”; the tumour growth result was “Reduced”.

On to “(R)-3-hydroxybutyrate-glycerol partial ester”, for which, in [10], the “circulating levels of (R)-3-hydroxybutyrate in the blood” value was “high” and the “level of uptake in the gut” value was “surprisingly high”.
